# According to US10669272B2, “Substituted naphthyridinone compounds useful as T cell activators” (BRISTOL-MYERS SQUIBB COMPANY, priority 2018, dated 2020):
# Where a name gives a salt, the structure may show the parent alone. Read-outs that look alike come from different tables or passages of the source.
# Tests used:
# human DGKζ = molecular target: T1, human DGKζ (Homo sapiens, UniProt Q13574); assay: DGKζ LIPGLO assay (extruded liposome substrate), in vitro DGK inhibition; assay type: biochemical; conditions: read-out: DGKz LIPGLO IC50
# T1 construct: TVMV protease cleavage site (C); Hexa-His (C); made in house; host or cells: Sf9 insect cells (baculovirus, Bac-to-Bac)
# human DGKα = molecular target: T2, human DGKα (Homo sapiens, UniProt P23743); assay: DGKα LIPGLO assay (extruded liposome substrate), in vitro DGK inhibition; assay type: biochemical; conditions: read-out: DGKa LIPGLO IC50
# T2 construct: TVMV protease cleavage site (C); Hexa-His (C); made in house; host or cells: Sf9 insect cells (baculovirus, Bac-to-Bac)
# naïve human CD8 T cells = assay: Human CD8 T cells IFN-γ assay; assay type: cell-based; conditions: normalized to 3 μM reference compound with anti-CD3 plus anti-CD28 as 100% activation, read-out: HuCD8 INFG Normalized EC50;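 note: Naïve human CD8 T cells stimulated with plate-bound anti-CD3 and soluble anti-CD28, IFN-γ in supernatant quantified by AlphaLISA and converted to pg/mL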
# [1] = test system: OT-1 CD8+ T cells with SIINFEKL-loaded MC38 tumor cells; assay: Murine cytotoxic T lymphocyte assay (IFN-γ, OT-1 CTL with MC38 tumor cells); assay type: cell-based, mouse; conditions: read-out: msCTL INFg IC50
# From the text: 5. Murine Cytotoxic T Lymphocyte Assay
# An antigen-specific cytolytic T-cell (CTL) assay was developed to evaluate functionally the ability of DGKα and DGKζ inhibitors to enhance effector T cell mediated tumor cell killing activity. CD8+ T-cells isolated from the OT-1 transgenic mouse recognize antigen presenting cells, MC38, that present the ovalbumin derived peptide […]. Recognition of the cognate antigen initiates the cytolytic activity of the OT-1 antigen-specific CD8+ T cells.
# Functional CTL cells were generated as follows: OT-1 splenocytes from 8-12 week old mice were isolated and expanded in the presence of the […] peptide at 1 μg/mL and mIL2 at 10 U/mL. After three days, fresh media with […] was added. On day 5 of the expansion, the CD8+ T cells were isolated and ready for use. Activated CTL cells may be stored frozen for 6 months. Separately, one million MC38 tumor cells were pulsed with 1 μg/mL of […]-OVA peptide for 3 hours at 37° C. The cells were washed (3×) with fresh media to remove excess peptide. Finally, CTL cells that were pretreated with DGK inhibitors for 1 hour in a 96-well U bottom plate were combined with the antigen loaded MC38 tumor cells at a 1:10 ratio. The cells were then spun at 700 rpm for 5 min and placed in an incubator overnight at 37° C. After 24 hours, the supernatant was collected for analysis of IFN-γ cytokine levels by AlphaLisa purchased from Perkin Elmer.
# Human venous whole blood = assay: Human whole blood IFN-γ assay; assay type: cell-based; conditions: human whole blood, read-out: INFg Whole Blood Normalized Agonist EC50;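 note: blood from healthy donors exposed to compound for 1 h before stimulation with anti-CD3 and anti-CD28 at 1 µg/mL each, IFN-γ quantified in supernatant by AlphaLISA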
# [2] = Homo sapiens, 24 h, normalized to 3 μM reference compound with anti-CD3 plus anti-CD28 as 100% activation
# [3] = normalized to 3 μM reference compound with anti-CD3 plus anti-CD28 as 100% activation
# [4] = Homo sapiens, 24 h, anti-CD3 plus anti-CD28, 24 hours, 3 μM reference compound = 100% activation
# [5] = Mus musculus, MC-38, murine CTL, IFN-γ
# T2 sequence (P23743 with tags, fused parts or gaps): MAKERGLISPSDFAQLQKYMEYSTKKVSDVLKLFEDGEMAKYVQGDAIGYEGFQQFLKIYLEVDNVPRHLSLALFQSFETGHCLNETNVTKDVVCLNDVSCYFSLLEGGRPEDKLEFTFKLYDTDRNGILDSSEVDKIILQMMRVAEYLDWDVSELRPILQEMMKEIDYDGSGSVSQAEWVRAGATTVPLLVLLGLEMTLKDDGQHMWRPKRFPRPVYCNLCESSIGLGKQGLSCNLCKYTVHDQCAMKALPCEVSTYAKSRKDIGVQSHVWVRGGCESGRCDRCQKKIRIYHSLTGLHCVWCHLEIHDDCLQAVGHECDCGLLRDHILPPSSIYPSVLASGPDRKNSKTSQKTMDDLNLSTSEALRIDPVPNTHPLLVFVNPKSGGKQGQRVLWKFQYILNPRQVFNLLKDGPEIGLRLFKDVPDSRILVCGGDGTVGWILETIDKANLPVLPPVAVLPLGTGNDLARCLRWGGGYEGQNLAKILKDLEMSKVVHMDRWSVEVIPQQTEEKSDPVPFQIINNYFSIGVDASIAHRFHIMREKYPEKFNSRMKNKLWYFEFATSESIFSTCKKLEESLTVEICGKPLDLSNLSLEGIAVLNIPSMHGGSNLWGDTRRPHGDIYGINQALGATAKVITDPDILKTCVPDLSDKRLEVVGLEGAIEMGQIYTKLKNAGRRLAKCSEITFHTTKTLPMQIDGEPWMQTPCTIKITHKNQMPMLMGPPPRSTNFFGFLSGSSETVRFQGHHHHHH
# T1 sequence (Q13574 with tags, fused parts or gaps isoform Q13574-4): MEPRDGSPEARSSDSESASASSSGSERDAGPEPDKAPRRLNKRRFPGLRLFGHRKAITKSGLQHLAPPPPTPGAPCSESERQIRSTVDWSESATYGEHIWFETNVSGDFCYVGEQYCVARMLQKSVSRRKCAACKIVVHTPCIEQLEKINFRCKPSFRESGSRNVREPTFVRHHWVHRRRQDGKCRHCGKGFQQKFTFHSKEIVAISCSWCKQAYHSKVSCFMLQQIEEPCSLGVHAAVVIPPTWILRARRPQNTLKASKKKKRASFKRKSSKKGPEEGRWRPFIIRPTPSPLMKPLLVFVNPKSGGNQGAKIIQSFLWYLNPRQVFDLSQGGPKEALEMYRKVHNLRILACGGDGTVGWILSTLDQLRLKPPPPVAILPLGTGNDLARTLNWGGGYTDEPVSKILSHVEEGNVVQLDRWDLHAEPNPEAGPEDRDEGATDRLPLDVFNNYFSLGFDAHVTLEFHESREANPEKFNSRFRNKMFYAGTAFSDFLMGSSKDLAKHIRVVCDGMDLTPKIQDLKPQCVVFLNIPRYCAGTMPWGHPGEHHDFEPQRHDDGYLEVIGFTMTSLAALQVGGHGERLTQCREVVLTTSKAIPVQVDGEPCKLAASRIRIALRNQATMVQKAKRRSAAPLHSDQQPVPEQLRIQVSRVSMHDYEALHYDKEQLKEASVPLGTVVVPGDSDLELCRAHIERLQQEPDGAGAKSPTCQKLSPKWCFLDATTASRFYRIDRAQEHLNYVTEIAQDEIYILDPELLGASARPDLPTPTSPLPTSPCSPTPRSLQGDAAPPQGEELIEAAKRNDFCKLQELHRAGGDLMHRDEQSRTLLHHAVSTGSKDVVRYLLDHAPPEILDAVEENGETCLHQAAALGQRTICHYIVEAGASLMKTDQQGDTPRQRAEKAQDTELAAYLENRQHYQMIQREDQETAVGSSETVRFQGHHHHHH
Compound,IC50 (human DGKζ; liposome (LIPGLO) assay) [µM],IC50 (human DGKα; liposome (LIPGLO) assay) [µM],"IC50 ([1]; Mus musculus, MC-38) [µM]",IC50 [1] [µM],EC50 (Human venous whole blood; [2]) [µM],other results
"Cn1c(=O)c(C#N)c(N2CCN(C(c3ccc(F)cc3)c3ccc(F)cc3)C(CO)C2)c2nc(C#N)ccc21 (single isomer, unassigned) [Example 15, 8-(4-(bis(4-fluorophenyl)methyl)-3-(hydroxymethyl)piperazin-1-yl)-5-methyl-6-oxo-5,6-dihydro-1,5-naphthyridine-2,7-dicarbonitrile]",6.6,5.1,0.91,,,EC50 (naïve human CD8 T cells): 10 µM
"COc1cc(F)ccc1C(c1ccc(F)cc1)N1C[C@H](C)N(c2c(C#N)c(=O)n(C)c3ccc(C#N)nc23)C[C@H]1C (single isomer, unassigned) [Example 112]",2.6,77,1.6,,7,
"COc1cc(F)ccc1C(c1ccc(F)cc1)N1C[C@H](C)N(c2c([N+](=O)[O-])c(=O)n(C)c3ccc(C#N)nc23)C[C@H]1C (single isomer, unassigned) [Example 122]",4.8,210,3.8,,10,
"COc1cc(F)ccc1C(c1ccc(F)cc1)N1CCN(c2cc(=O)n(C)c3ccc(C#N)nc23)[C@@H](C)C1 (single isomer, unassigned) [Example 130]",0.96,18,,0.75,,EC50 (Human venous whole blood; [3]): 4 µM
"Cn1c(=O)cc(N2CCN(C(c3ccc(F)cc3)c3ccc(F)cc3)CC2c2ccccc2)c2nc(C#N)ccc21 (single isomer, unassigned) [Example 156, 8-(4-(bis(4-fluorophenyl)methyl)-2-phenylpiperazin-1-yl)-5-methyl-6-oxo-5,6-dihydro-1,5-naphthyridine-2-carbonitrile]",9.8,8.5,,0.4,,EC50 (Human venous whole blood; [3]): 6.9 µM
"Cc1ccc(C(c2ccc(F)cc2)N2C[C@H](C)N(c3cc(=O)n(C)c4ccc(C#N)nc34)C[C@H]2C)cc1 (single isomer, unassigned) [Example 251]",0.32,0.67,0.032,,0.44,
"Cc1ccc(C(C)N2CCN(c3c(C#N)c(=O)n(C)c4ccc(C#N)nc34)C[C@H]2C)cc1 (single isomer, unassigned) [Example 952]",,,,,,"EC50 (Human venous whole blood; [4]): 3 µM; IC50 (human DGKζ; DGKζ liposome (LIPGLO) assay): 2.3 µM; IC50 (human DGKα; DGKα liposome (LIPGLO) assay): 0.59 µM; IC50 ([1]; murine CTL, IFN-γ): 5.9 µM"
"Cc1nnc(C2CN(c3cc(=O)n(C)c4ccc(C#N)nc34)CCN2C(c2ccc(F)cc2)c2ccc(F)cc2)o1 (centres unmarked) [Example 126, 8-(4-(bis(4-fluorophenyl)methyl)-3-(5-methyl-1,3,4-oxadiazol-2-yl)piperazin-1-yl)-5-methyl-6-oxo-5,6-dihydro-1,5-naphthyridine-2-carbonitrile]",31,230,10,,20,
C[C@@H]1CN(c2c(C#N)c(=O)n(C)c3ccc(C#N)nc23)CCN1Cc1ccc(F)cc1F [Example 985],,,,,,"EC50 (Human venous whole blood; [4]): 9.7 µM; IC50 (human DGKζ; DGKζ liposome (LIPGLO) assay): 3 µM; IC50 (human DGKα; DGKα liposome (LIPGLO) assay): 2.2 µM; IC50 [1, 5]: 4.1 µM"
C[C@@H]1CN(c2c(C#N)c(=O)n(C)c3ccc(C#N)nc23)CCN1Cc1c(F)cc(F)cc1F [Example 986],,,,,,"EC50 (Human venous whole blood; [4]): 20 µM; IC50 (human DGKζ; DGKζ liposome (LIPGLO) assay): 2.6 µM; IC50 (human DGKα; DGKα liposome (LIPGLO) assay): 4.2 µM; IC50 [1, 5]: 3.7 µM"

# Further lines, with some results ahead:
IC50 (human DGKζ; liposome (LIPGLO) assay) [µM],IC50 (human DGKα; liposome (LIPGLO) assay) [µM],Compound,"IC50 ([1]; Mus musculus, MC-38) [µM]",IC50 [1] [µM],EC50 (Human venous whole blood; [2]) [µM],other results
12,7.5,"Cn1c(=O)c(C#N)c(N2CCN(C(c3ccc(F)cc3)c3ccc(F)cc3)C(CO)C2)c2nc(C#N)ccc21 (single isomer, unassigned) [Example 16, 8-(4-(bis(4-fluorophenyl)methyl)-3-(hydroxymethyl)piperazin-1-yl)-5-methyl-6-oxo-5,6-dihydro-1,5-naphthyridine-2,7-dicarbonitrile]",,1.4,,EC50 (naïve human CD8 T cells): 0.53 µM
120,200,"Cn1c(=O)c(C#N)c(N2CCN(C(c3ccc(F)cc3)c3ccc(F)cc3)C(C(=O)O)C2)c2nc(C#N)ccc21 (single isomer, unassigned) [Example 54, 1-(bis(4-fluorophenyl)methyl)-4-(3,6-dicyano-1-methyl-2-oxo-1,2-dihydro-1,5-naphthyridin-4-yl)piperazine-2-carboxylic acid]",10,,,EC50 (naïve human CD8 T cells): 10 µM
72,240,"Cn1c(=O)c(C#N)c(N2CCN(C(c3ccc(F)cc3)c3ccc(F)cc3)C(C(=O)NC3CC3)C2)c2nc(C#N)ccc21 (single isomer, unassigned) [Example 60, 1-(bis(4-fluorophenyl)methyl)-N-cyclopropyl-4-(3,6-dicyano-1-methyl-2-oxo-1,2-dihydro-1,5-naphthyridin-4-yl)piperazine-2-carboxamide]",10,,,"EC50 (naïve human CD8 T cells; Homo sapiens, T-cell, 20 h): 10 µM"
240,240,"CC(C)OC(=O)C1CN(c2cc(=O)n(C)c3ccc(C#N)nc23)CCN1C(c1ccc(F)cc1)c1ccc(F)cc1 (single isomer, unassigned) [Example 63, Isopropyl 1-(bis(4-fluorophenyl)methyl)-4-(6-cyano-1-methyl-2-oxo-1,2-dihydro-1,5-naphthyridin-4-yl)piperazine-2-carboxylate]",,1.6,,EC50 (naïve human CD8 T cells): 0.21 µM
240,240,"CC(C)C(C)(F)C1CN(c2cc(=O)n(C)c3ccc(C#N)nc23)CCN1C(c1ccc(F)cc1)c1ccc(F)cc1 (single isomer, unassigned) [Example 90, 8-(4-(bis(4-fluorophenyl)methyl)-3-(2-fluoro-3-methylbutan-2-yl)piperazin-1-yl)-5-methyl-6-oxo-5,6-dihydro-1,5-naphthyridine-2-carbonitrile, TFA]",4.8,,20,
240,2.4,"CC1C(C)N(C(c2ccc(F)cc2)c2ccc(F)cc2)CCN1c1cc(=O)n(C)c2ccc(C#N)nc12 (single isomer, unassigned) [Example 123, 8-(4-(bis(4-fluorophenyl)methyl)-2,3-dimethylpiperazin-1-yl)-5-methyl-6-oxo-5,6-dihydro-1,5-naphthyridine-2-carbonitrile]",,2.4,,EC50 (Human venous whole blood; [3]): 35 µM
15,9.9,"CC1C(C)N(C(c2ccc(F)cc2)c2ccc(F)cc2)CCN1c1cc(=O)n(C)c2ccc(C#N)nc12 (single isomer, unassigned) [Example 124, 8-(4-(bis(4-fluorophenyl)methyl)-2,3-dimethylpiperazin-1-yl)-5-methyl-6-oxo-5,6-dihydro-1,5-naphthyridine-2-carbonitrile]",,0.39,,EC50 (Human venous whole blood; [3]): 4.8 µM
0.82,12,"COc1cc(F)ccc1C(c1ccc(F)cc1)N1CCN(c2cc(=O)n(C)c3ccc(C#N)nc23)[C@@H](C)C1 (single isomer, unassigned) [Example 129]",0.71,,5.4,
6.4,5.4,"Cn1c(=O)cc(N2CCN(C(c3ccc(F)cc3)c3ccc(F)cc3)CC2C#N)c2nc(C#N)ccc21 (single isomer, unassigned) [Example 143, 8-(4-(bis(4-fluorophenyl)methyl)-2-cyanopiperazin-1-yl)-5-methyl-6-oxo-5,6-dihydro-1,5-naphthyridine-2-carbonitrile]",0.33,,5.7,
0.82,1.4,"C[C@@H]1CN(c2c(Cl)c(=O)n(C)c3ccc(C#N)nc23)CCN1C(c1ccc(Cl)cc1)c1ccc(Cl)cc1 [Example 105, (R)-8-(4-(bis(4-chlorophenyl)methyl)-3-methylpiperazin-1-yl)-7-chloro-5-methyl-6-oxo-5,6-dihydro-1,5-naphthyridine-2-carbonitrile, dimethylformamide]",0.074,,4.3,
